According to patent US20020061325A1, “Container for 4-allylanisole and analog scolytid pesticides” (priority 1993, published 2002):
Blank lines part the entries; values can stand above or below the compound they belong to.

Experiments:
[1] = system: southern pine beetle; experiment: Laboratory assay for effectiveness of repellent (circle of compound on cardboard, beetle response); format: in vivo; design: BEHAVIORAL RATING: scale not given here; details: for BEHAVIORAL RATING: numerical score for degree of behavioral response; for repelled behavioral response (in words): laboratory tests
Description: A) Laboratory Assay for Effectiveness of Repellent
The candidate compound was applied as a circle (17 cm in diameter by 5 mm in width) to a 28 by 21.5 cm piece of uncoated cardboard using a camel-hair brush. Three minutes after application, a beetle was placed in the center of the circle. In each trial, at least 20 healthy-appearing beetles were tested. Testing was conducted at room temperature (22°-25° C.) with light supplied from an adjoining room. The beetles were briefly refrigerated prior to testing to reduce their tendency to fly immediately upon release. An object was used to cast a shadow over the test circle in order to minimize response to light, which could interfere with the interpretation of insect response to an applied substance.

[2] = system: southern pine beetle; experiment: Field assay with frontalure-baited Lindgren funnel traps; format: in vivo; details: for rank (relative repellency, 1 = best repellent): frontalure plus test compound; for mean rank: mean over the trials in which the compound was tested; for rank in reduction of trap captures: the two field trials in which they were tested, relative to 4-allylanisole
Description: B) Field Assays of the Effectiveness of Repellents
Field assays were carried out with selected 4-allylanisole analogs, including 4-allylanisole, anisole, 4-isopropylanisole, allylbenzene, 4-methylstyrene, toluene, and trans-anethole. The protocol for these assays is similar to that previously described (Hayes, et al., 1994a; Hayes and Strom, 1994c, both incorporated by reference as if fully set forth herein). Populations of local southern pine beetle were tested for response to these compounds using baited Lindgren funnel (16-funnel) traps. Traps were placed in or near active infestations of southern pine beetle over the course of the summer of 1997. Treatment baits consisted of the attractant frontalure and frontalure plus the test compound released from a 4-ml Samco pipette bulb. Hayes, et al., (J. Vozzo [ed.] Research and applications of chemical sciences in forestry: Proceeding of the 4th Southern Station Chemical Sciences Meeting, GTR-SO-104:69-80, 1994). Frontalure is a combination of frontalin, which is an aggregation pheromone of the southern pine beetle, and a-pinene, a synergistic host oleoresin compound. In most cases, each trap array consisted of a total of six traps: one frontalure-only treatment; one frontalure plus 4-allylanisole treatment, and four traps containing treatments of frontalure plus a 4-allylanisole analog. In one instance a 12-trap array was employed, the array having two traps per treatment.
(§1) Release rates were determined in preliminary studies using simple gravimetric measurement of bulbs to provide elution in mg/day units. Release rates of all analog compounds were equal to or greater than that of 4-allylanisole. Placement of treatments was originally assigned at random and rotated sequentially with each collection. Each array was collected through two full rotations. Whole traps were moved in order to eliminate the possibility of contamination. Collection cups contained a 5.5×2 cm piece of pest strip, containing as its active ingredient the insecticidal agent 2,2 dichlorovinyldimethylphosphate to kill the captured insects. The numbers of captured southern pine beetle and of predatory clerid beetle Thanasimus dubius, the most important natural enemy of the southern pine beetle, were determined. Data were analyzed using ANOVA (SAS PROC GLM) to determine if the mean numbers of southern pine beetles or clerids were affected by treatment. The positions of the traps were also taken into consideration in the model.

[3] = Release rate by gravimetric measurement of pipette bulbs; format: physicochemical; details: elution from 4-ml Samco pipette bulb, preliminary studies
Description: as §1

[4] = 30-second exposure, 3 min after application, at least 20 beetles per trial, 22-25 C
[5] = compounds marked * : originally tested with sample size of 45-53 beetles, published in Hayes et al. 1994

Structure (SMILES): CCOc1ccccc1 [phenetole]
BEHAVIORAL RATING ([1]; 30-second exposure): 2

Structure (SMILES): COc1ccccc1C [2-methylanisole]
% REPELLED [1, 4]: 35% | BEHAVIORAL RATING ([1]; 30-second exposure): 1

Structure (SMILES): COc1cccc(CO)c1 [3-methoxybenzyl alcohol]
% REPELLED [1, 4]: 0% | BEHAVIORAL RATING ([1]; 30-second exposure): 1

Structure (SMILES): COc1ccccc1CO [2-methoxybenzyl alcohol]
% REPELLED [1, 4]: 0% | BEHAVIORAL RATING ([1]; 30-second exposure): 1

Structure (SMILES): CC(C)c1ccccc1 [cumene]
% REPELLED [1, 4]: 55% | BEHAVIORAL RATING ([1]; 30-second exposure): 3

Structure (SMILES): Cc1ccc(C(C)C)cc1 [p-cymene]
% REPELLED [1, 4]: 28% | BEHAVIORAL RATING ([1]; 30-second exposure): 2

Structure (SMILES): C=Cc1ccc(OC)cc1 [4-vinylanisole]
% REPELLED [1, 4]: 24% | BEHAVIORAL RATING ([1]; 30-second exposure): 2

Structure (SMILES): CCCc1ccccc1OC [2-propylanisole]
% REPELLED [1, 4]: 8% | BEHAVIORAL RATING ([1]; 30-second exposure): 2

release rate [3]: 16.45 mg/day
Structure (SMILES): COc1ccc(C(C)C)cc1 [4-isopropylanisole]
% REPELLED [1, 5]: >90% | rank (relative repellency, 1 = best repellent) ([2]; TRIAL 1): 4 | rank (relative repellency, 1 = best repellent) ([2]; TRIAL 2): 2 | rank (relative repellency, 1 = best repellent) ([2]; TRIAL 3): 2 | rank (relative repellency, 1 = best repellent) ([2]; TRIAL 4): 5 | rank (relative repellency, 1 = best repellent) ([2]; TRIAL 5): 3 | rank (relative repellency, 1 = best repellent) ([2]; TRIAL 6): 2 | mean rank [2]: 3.5

Structure (SMILES): CCCc1ccccc1O [2-propylphenol]
BEHAVIORAL RATING ([1]; 30-second exposure): 2

Structure (SMILES): CCCc1ccccc1 [propylbenzene]
% REPELLED [1, 4]: 17% | BEHAVIORAL RATING ([1]; 30-second exposure): 1

Structure (SMILES): CCOc1ccccc1OC [2-ethoxyanisole]
% REPELLED [1, 4]: 40% | BEHAVIORAL RATING ([1]; 30-second exposure): 2

Structure (SMILES): Cc1ccccc1 [toluene]
repelled behavioral response (in words) [1]: modest repellent response | BEHAVIORAL RATING ([1]; 30-second exposure): 2 | rank (relative repellency, 1 = best repellent) ([2]; TRIAL 1): 2 | rank (relative repellency, 1 = best repellent) ([2]; TRIAL 2): 3 | mean rank [2]: 2.5 | rank in reduction of trap captures [2]: second and third | release rate [3]: 462.6 mg/day

Structure (SMILES): COc1cccc(C(C)=O)c1 [3-methoxyacetophenone]
% REPELLED [1, 4]: 8% | BEHAVIORAL RATING ([1]; 30-second exposure): 2

Structure (SMILES): C=CCc1ccc(O)c(OC)c1 [eugenol]
% REPELLED [1, 5]: <40%

Structure (SMILES): COc1ccc(CC#N)cc1 [4-methoxypheylacetonitrile]
% REPELLED [1, 5]: <30%

Structure (SMILES): CCCCc1ccccc1 [butylbenzene]
% REPELLED [1, 4]: 39% | BEHAVIORAL RATING ([1]; 30-second exposure): 2

release rate [3]: 674.75 mg/day
Structure (SMILES): C=Cc1ccc(C)cc1 [4-methylstyrene]
repelled behavioral response (in words) [1]: modest repellent response | BEHAVIORAL RATING ([1]; 30-second exposure): 2 | rank (relative repellency, 1 = best repellent) ([2]; TRIAL 3): 2 | rank (relative repellency, 1 = best repellent) ([2]; TRIAL 4): 3 | mean rank [2]: 2.5 | rank in reduction of trap captures [2]: second and third

Structure (SMILES): C=CCc1ccccc1 [allylbenzene]
% REPELLED [1, 5]: >90% | rank (relative repellency, 1 = best repellent) ([2]; TRIAL 1): 5 | rank (relative repellency, 1 = best repellent) ([2]; TRIAL 2): 5 | rank (relative repellency, 1 = best repellent) ([2]; TRIAL 5): 2 | rank (relative repellency, 1 = best repellent) ([2]; TRIAL 6): 4 | mean rank [2]: 4.0 | release rate [3]: 128.2 mg/day

Structure (SMILES): COc1ccc(C)cc1 [4-methylanisole]
% REPELLED [1, 4]: 45% | BEHAVIORAL RATING ([1]; 30-second exposure): 2

Structure (SMILES): C=CCc1ccc(OC)cc1 [4-allylanisole]
rank (relative repellency, 1 = best repellent) ([2]; TRIAL 1): 1 | rank (relative repellency, 1 = best repellent) ([2]; TRIAL 2): 1 | rank (relative repellency, 1 = best repellent) ([2]; TRIAL 3): 1 | rank (relative repellency, 1 = best repellent) ([2]; TRIAL 4): 1 | rank (relative repellency, 1 = best repellent) ([2]; TRIAL 5): 1 | rank (relative repellency, 1 = best repellent) ([2]; TRIAL 6): 1 | beetles captured relative to other treatments ([2]; all trials): fewest | mean rank [2]: 1.0 | release rate [3]: 15.6 mg/day

Structure (SMILES): COc1ccc(C(C)=O)cc1 [4-methoxyacetophenone]
% REPELLED [1, 4]: 96% | BEHAVIORAL RATING ([1]; 30-second exposure): 3

Structure (SMILES): COc1ccc(C=CC#N)cc1 [4-methoxycinnamonitrile]
% REPELLED [1, 5]: <20%

Structure (SMILES): COc1ccc(C=O)cc1 [p-anisaldehyde]
% REPELLED [1, 4]: 65% | BEHAVIORAL RATING ([1]; 30-second exposure): 3

Structure (SMILES): Cc1ccc(C)cc1 [p-xylene]
% REPELLED [1, 4]: 50% | BEHAVIORAL RATING ([1]; 30-second exposure): 2

Structure (SMILES): Cc1cccc(C)c1 [m-xylene]
% REPELLED [1, 4]: 34% | BEHAVIORAL RATING ([1]; 30-second exposure): 2

Structure (SMILES): Cc1ccccc1C [o-xylene]
% REPELLED [1, 4]: 46% | BEHAVIORAL RATING ([1]; 30-second exposure): 2

release rate [3]: 44.65 mg/day
Structure (SMILES): C/C=C/c1ccc(OC)cc1 [trans-anethole]
% REPELLED [1, 5]: <20% | rank (relative repellency, 1 = best repellent) ([2]; TRIAL 3): 3 | rank (relative repellency, 1 = best repellent) ([2]; TRIAL 4): 4 | rank (relative repellency, 1 = best repellent) ([2]; TRIAL 5): 4 | rank (relative repellency, 1 = best repellent) ([2]; TRIAL 6): 6 | mean rank [2]: 4.25

Structure (SMILES): CCc1ccccc1 [ethylbenzene]
% REPELLED [1, 4]: 72% | BEHAVIORAL RATING ([1]; 30-second exposure): 3

Structure (SMILES): COCC(=O)c1ccccc1 [2-methoxyacetophenone]
% REPELLED [1, 4]: 8% | BEHAVIORAL RATING ([1]; 30-second exposure): 2

Structure (SMILES): COc1ccc(C(C)(C)C)cc1 [4-tert-butylanisole]
% REPELLED [1, 4]: 0% | BEHAVIORAL RATING ([1]; 30-second exposure): 1

Structure (SMILES): CCc1ccccc1O [2-ethylphenol]
% REPELLED [1, 4]: 50% | BEHAVIORAL RATING ([1]; 30-second exposure): 2

release rate [3]: 52.2 mg/day
Structure (SMILES): COc1ccccc1 [anisole]
% REPELLED [1, 5]: >80% | rank (relative repellency, 1 = best repellent) ([2]; TRIAL 1): 3 | rank (relative repellency, 1 = best repellent) ([2]; TRIAL 2): 4 | rank (relative repellency, 1 = best repellent) ([2]; TRIAL 3): 4 | rank (relative repellency, 1 = best repellent) ([2]; TRIAL 4): 2 | rank (relative repellency, 1 = best repellent) ([2]; TRIAL 5): 5 | rank (relative repellency, 1 = best repellent) ([2]; TRIAL 6): 3 | mean rank [2]: 3.5
